Tested on: KRAS PDC multicell spheroid viability
Assay: Anticancer human tumor 521955-158-R6-J3-PDC patient-derived pancreatic carcinoma cell line growth inhibition [KRAS2]
Conditions: for IC50: curve of first compound; for viability, T/C: stronger effect = lower value
Outline: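 KRAS-mutant tumor cells were grown as spheroids with HUVEC endothelial cells and human MSCs as stroma. Targeted agents were tested alone and with KRAS pathway inhibitors. Doses started at or near clinical Cmax, or 10 microM, descending half-log.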

[1] = second compound 0.1 µM, first compound 0.0316 µM
[2] = second compound 0.316 µM, first compound 0.0316 µM
[3] = second compound 1 µM, first compound 0.0316 µM
[4] = second compound 3.16 µM, first compound 0.0316 µM
[5] = second compound 10 µM, first compound 0.0316 µM
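Further: drug exposure lasted seven days.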
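Wherever viability, T/C is given: 100% = DMSO vehicle wells and lower means fewer viable cells.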

Work on `CC(=O)Nc1cccc(-n2c(=O)n(C3CC3)c(=O)c3c(Nc4ccc(I)cc4F)n(C)c(=O)c(C)c32)c1` + CC1OCC2(CCN(c3cnc(Sc4ccnc(N)c4Cl)c(N)n3)CC2)C1N yielded an IC50 (second compound 0.1 µM) of 18.9 nM, an IC50 (second compound 0.316 µM) of 12.5 nM and an IC50 (second compound 1 µM) of 5.43 nM. The IC50 (second compound 3.16 µM) was 2.44 nM, the IC50 (second compound 10 µM) was 2.24 nM and the viability, T/C (second compound 0.1 µM, first compound 0.0001 µM) was 87.8%. For the same molecule, the viability, T/C (second compound 0.1 µM, first compound 0.000316 µM) was 82.8%, the viability, T/C (second compound 0.1 µM, first compound 0.001 µM) was 91.2% and the viability, T/C (second compound 0.1 µM, first compound 0.00316 µM) was 83.5%. For the same molecule, the viability, T/C (second compound 0.1 µM, first compound 0.01 µM) was 56.7%, the viability, T/C [1] was 44.6% and the viability, T/C (second compound 0.316 µM, first compound 0.0001 µM) was 83.2%. It also gave a viability, T/C (second compound 0.316 µM, first compound 0.000316 µM) of 85.7%, a viability, T/C (second compound 0.316 µM, first compound 0.001 µM) of 77.2% and a viability, T/C (second compound 0.316 µM, first compound 0.00316 µM) of 65%. It also gave a viability, T/C (second compound 0.316 µM, first compound 0.01 µM) of 55.7%, a viability, T/C [2] of 33.7% and a viability, T/C (second compound 1 µM, first compound 0.0001 µM) of 103%. It also gave a viability, T/C (second compound 1 µM, first compound 0.000316 µM) of 87.6%, a viability, T/C (second compound 1 µM, first compound 0.001 µM) of 80.1% and a viability, T/C (second compound 1 µM, first compound 0.00316 µM) of 55.3%. For the same molecule, the viability, T/C (second compound 1 µM, first compound 0.01 µM) was 41.8%, the viability, T/C [3] was 27.8% and the viability, T/C (second compound 3.16 µM, first compound 0.0001 µM) was 105%. For the same molecule, the viability, T/C (second compound 3.16 µM, first compound 0.000316 µM) was 90.7%, the viability, T/C (second compound 3.16 µM, first compound 0.001 µM) was 62.8% and the viability, T/C (second compound 3.16 µM, first compound 0.00316 µM) was 47%. The viability, T/C (second compound 3.16 µM, first compound 0.01 µM) was 34.9%, the viability, T/C [4] was 28.6% and the viability, T/C (second compound 10 µM, first compound 0.0001 µM) was 85.6%. The viability, T/C (second compound 10 µM, first compound 0.000316 µM) was 70.9%, the viability, T/C (second compound 10 µM, first compound 0.001 µM) was 67.4% and the viability, T/C (second compound 10 µM, first compound 0.00316 µM) was 42.3%. It also gave a viability, T/C (second compound 10 µM, first compound 0.01 µM) of 30.3% and a viability, T/C [5] of 23%.

Molecule `COC(=O)c1ccc2c(C(=Nc3ccc(N(C)C(=O)CN4CCN(C)CC4)cc3)c3ccccc3)c(O)[nH]c2c1` + CC1OCC2(CCN(c3cnc(Sc4ccnc(N)c4Cl)c(N)n3)CC2)C1N has an IC50 (second compound 0.1 µM) of 2590 nM, an IC50 (second compound 0.316 µM) of 2150 nM and an IC50 (second compound 1 µM) of 2120 nM. The IC50 (second compound 3.16 µM) was 2150 nM, the IC50 (second compound 10 µM) was 1470 nM and the viability, T/C [1] was 79.8%. The viability, T/C (second compound 0.1 µM, first compound 0.1 µM) was 88.5%, the viability, T/C (second compound 0.1 µM, first compound 0.316 µM) was 108% and the viability, T/C (second compound 0.1 µM, first compound 1 µM) was 114%. It also gave a viability, T/C (second compound 0.1 µM, first compound 3.16 µM) of 40%, a viability, T/C (second compound 0.1 µM, first compound 10 µM) of 1.22% and a viability, T/C [2] of 82.5%. It also gave a viability, T/C (second compound 0.316 µM, first compound 0.1 µM) of 102%, a viability, T/C (second compound 0.316 µM, first compound 0.316 µM) of 110% and a viability, T/C (second compound 0.316 µM, first compound 1 µM) of 113%. The viability, T/C (second compound 0.316 µM, first compound 3.16 µM) was 23.6%, the viability, T/C (second compound 0.316 µM, first compound 10 µM) was 0.76% and the viability, T/C [3] was 106%. For the same molecule, the viability, T/C (second compound 1 µM, first compound 0.1 µM) was 104%, the viability, T/C (second compound 1 µM, first compound 0.316 µM) was 111% and the viability, T/C (second compound 1 µM, first compound 1 µM) was 95.6%. It also gave a viability, T/C (second compound 1 µM, first compound 3.16 µM) of 25.5%, a viability, T/C (second compound 1 µM, first compound 10 µM) of 0.47% and a viability, T/C [4] of 101%. For the same molecule, the viability, T/C (second compound 3.16 µM, first compound 0.1 µM) was 120%, the viability, T/C (second compound 3.16 µM, first compound 0.316 µM) was 103% and the viability, T/C (second compound 3.16 µM, first compound 1 µM) was 99.2%. For the same molecule, the viability, T/C (second compound 3.16 µM, first compound 3.16 µM) was 25.4%, the viability, T/C (second compound 3.16 µM, first compound 10 µM) was 0.29% and the viability, T/C [5] was 94.8%. The viability, T/C (second compound 10 µM, first compound 0.1 µM) was 94.8%, the viability, T/C (second compound 10 µM, first compound 0.316 µM) was 83.7% and the viability, T/C (second compound 10 µM, first compound 1 µM) was 72.2%. It also gave a viability, T/C (second compound 10 µM, first compound 3.16 µM) of 6.64% and a viability, T/C (second compound 10 µM, first compound 10 µM) of 2.18%.
